Laboratory results published in patent publication US20060029989A1, “Targeting cells having Mad2 mutation for treatment and/or prevention of disease” (Regents of the University of California, priority 1999, published 2006).

Legend:
[1] = tested on: established yeast models (mutated MAD1/MAD2 and secondary genes); experiment: yeast-based drug screening assay (control system showing lethality versus test system with drug added); format: cell-based; details: among tested compounds; pharmaceutically acceptable concentrations
Protocol: In essence assay consists of control system in which one observes lethality and test system to which a drug is added and its effect is evaluated based on difference between control and test system. If drug enhances lethality or reverses it this drug is considered as a candidate drug that may be specific in the biochemical pathway controlled by primary and secondary genes.

glioblastoma cells [2] = experiment: growth, replication and phenotype of glioblastoma cells under continuous drug treatment; format: cell-based, human
glioblastoma cells [3] = experiment: tumorigenicity of treated tumor cells in athymic mice; format: in vivo

## O=C([O-])CCCc1ccccc1.[Na+] [phenylbutyrate, 4-phenylbutyrtic acid sodium salt]
[1]
  activity in yeast-based screening: active at pharmaceutically acceptable concentrations
Glioblastoma cells [2]; 4 mM, after 4-6 days of continuous treatment, glioblastoma cells
  inhibition of growth: approximately 50%
Glioblastoma cells [2]; glioblastoma cells, phenylacetate metabolites compared
  tumor cell replication: inhibited tumor cell replication
Glioblastoma cells [2]; tumor cells
  cell maturation and phenotype (cytoskeletal intermediate filaments, anchorage-independence): promoted cell maturation and reversion to a nonmalignant phenotype
Glioblastoma cells [3]
  tumorigenicity in athymic mice: reduced tumorigenicity
